How the values were obtained:
[1] = tested on: anti-peptide IgG in plasma; assay: Test Example 4: peptide-specific IgG titer pre and post vaccination, bead-based multiplexed Luminex assay; type: in vivo, human; details: for Pre-vaccination IgG Negative (number of patients) / Pre-vaccination IgG Positive (number of patients): cut off 10 FIU; for Post vaccination IgG: number of (positive) patients among vaccinated: positive IgG response; for Pre-vaccination IgG Negative patients: number of 2,588 patients below 10 FIU; for Pre-vaccination IgG Positive patients: number of 2,588 patients with ≥10 FIU; for Post vaccination IgG: (positive) patients: number of vaccinated patients with positive IgG response; for Correlation between immune responses and OS: Negative (mOS): patients with negative post-vaccination IgG response to the peptide; for Correlation between immune responses and OS: Positive (mOS): patients with positive post-vaccination IgG response to the peptide
Description: As described previously, IgG titer specific to the antigen peptides in plasma was measured by bead-based multiplexed Luminex assay (Luminex, Austin, Tex.) before and after vaccination, i.e., at the end of each cycle or at the end of the clinical trial (Non-Patent Literature 4). In brief, 30 mL of peripheral blood was obtained before and after vaccination. Plasma was incubated with 100 μL of peptide-coupled color-coded beads for 2 hours at 25° C. on a plate shaker. After the incubation, the resultant mixture was washed with a vacuum manifold apparatus and incubated with 100 μL of biotinylated goat anti-human IgG (gamma chain-specific; Vector Laboratories, Burlingame, Calif.) for 1 hour at 25° C. on a plate shaker. The plate was then washed, followed by addition of 100 μL of streptavidin-PE (Life Technologies) to each well, and incubation for 30 minutes at 25° C. on a plate shaker. The resultant beads were washed 4 times, followed by addition of 100 μL of Tween-PBS to each well, and detection of fluorescence intensity units (FIU) on the beads using the Luminex system. The cutoff values of anti-peptide IgG were set to 10 FIU in 100-fold diluted samples.
Pre-vaccination peptide-specific IgG titers to 31 peptides were measured using a Luminex system. As a detectable IgG level, 10 FIU was employed as the cut off level, as reported previously (Noguchi M, et al., Cancer Immunol Immunother. 2013 May; 62(5): 919-29; Sasada T, et al., Current Medicinal Chemistry. 21: 2332-2345, 2014; Kibe S, et al., Cancer Immunology Research 2014; 2(12): 1154-62).
Post-vaccination lgG titers were measured at the ends of the first cycle and the second cycle.

cancer patients = assay: Test Example 4: correlation between vaccination with individual peptides (or peptide sets) and OS, Cox proportional hazards regression; type: in vivo, human; details: for HR: Cox proportional hazards regression, OS; for Correlation between immune responses and OS: Negative (mOS) / Correlation between immune responses and OS: Positive (mOS): Table 20, <64% neutrophil and ≥26% lymphocyte; for Correlation between immune responses and OS: Negative (mOS): vaccinated patients with negative IgG response; for Correlation between immune responses and OS: Positive (mOS): vaccinated patients with positive IgG response
Description: The Student's t-test and the chi-square test were used to compare quantitative and categorical variables, respectively. OS was calculated as the time in months from the date of clinical trial enrollment to death or to the date of last contact. Time-to-event endpoints were analyzed using the Kaplan-Meier method, and between-group comparison for OS was conducted using the log-rank test. Clinical efficacy of the individual peptides for OS was evaluated by univariate and multivariate analyses with the Cox proportional hazards regression model, and HR and 95% CI were calculated. All reported p-values were two-sided, and p-values less than 0.05 were considered significant. JMP version 12 or SAS version 9.4 software (SAS Institute Inc., Cary, N.C.) was used to perform all analyses.
Correlation levels of the 31 peptides for OS were evaluated by the Cox proportional hazards regression model.
Similarly, in the 2,085 advanced cancer patients (stage IV+recurrence) and the 503 non-advanced cancer patients (I-III stages) correlation levels of the 31 peptides for OS were evaluated by the Cox proportional hazards regression model. […]

[2] = Table 20, patients showing both <64% neutrophil and ≥26% lymphocyte
[3] = patients showing detectable levels
[4] = patients showing positive responses
[5] = Table 18, all 2,588 cases, vaccinated vs non-vaccinated
[6] = Table 18, all 2,588 cases, median OS of patients under PPV containing the peptide
[7] = Table 18, all 2,588 cases, median OS of patients under PPV not containing the peptide
[8] = Table 19, 2,085 advanced cancer patients (stage IV+recurrence)
[9] = Table 19, 2,085 advanced cancer patients (stage IV+recurrence), PPV containing the peptide
[10] = Table 19, 2,085 advanced cancer patients (stage IV+recurrence), PPV not containing the peptide
[11] = Table 21, patients showing both <64% neutrophil and ≥26% lymphocyte
[12] = Table 21, patients showing both <64% neutrophil and ≥26% lymphocyte, PPV containing the peptide
[13] = Table 21, patients showing both <64% neutrophil and ≥26% lymphocyte, PPV not containing the peptide

Sequence | Post vaccination IgG Median (FIU) [1, 2] | Pre-vaccination IgG Median (FIU) [1, 2] [FIU] | Pre-vaccination IgG Negative (number of patients) [1, 2] | Pre-vaccination IgG Positive (number of patients) [1, 2] | Post vaccination IgG: number of (positive) patients among vaccinated [1, 2] | Pre-vaccination IgG Negative patients [1] | Pre-vaccination IgG Positive patients [1] | Post vaccination IgG: (positive) patients [1] | Pre-vaccination IgG Median (FIU) [1, 3] [FIU] | Post vaccination IgG Median (FIU) [1, 4] | Correlation between immune responses and OS: Negative (mOS) [1] [months] | Correlation between immune responses and OS: Positive (mOS) [1] [months] | HR (cancer patients; [5]) | Vaccinate cases (mOS) (cancer patients; [6]) | Non-vaccinate cases (mOS) (cancer patients; [7]) | HR (cancer patients; [8]) | Vaccinate cases (mOS) (cancer patients; [9]) | Non-vaccinate cases (mOS) (cancer patients; [10]) | Correlation between immune responses and OS: Negative (mOS) (cancer patients) [months] | Correlation between immune responses and OS: Positive (mOS) (cancer patients) [months] | other results
ILGELREKV (listed as Homo sapiens) [WHSC2-141] | 18,171 FIU | 38 | 261 | 805 | 134(91) | 680 | 1,908 | 325(173) | 39 | 13,078 FIU | 7.7 | 19.0 | 1.0 | 325(12.1) M | 725(11.1) M | 1.0 | 271(11.1) M | 591(10.1) M | 12 | 28.2 | HR (cancer patients; [11]): 1.0; Vaccinate cases (mOS) (cancer patients; [12]): 134(18.0) M; Non-vaccinate cases (mOS) (cancer patients; [13]): 300(16.6) M
KLKHYGPGWV (listed as Homo sapiens) [CypB-129] | 3,143 FIU | 28 | 290 | 776 | 196(110) | 700 | 1,888 | 483(222) | 31 | 2,483 FIU | 9.0 | 23.8 | 0.9 | 483(12.3) M | 1458(11.2) M | 0.9 | 393(10.9) M | 1183(10.1) M | 13.2 | 29.4 | HR (cancer patients; [11]): 0.9; Vaccinate cases (mOS) (cancer patients; [12]): 196(19.3) M; Non-vaccinate cases (mOS) (cancer patients; [13]): 612(16.9) M
KLVERLGAA (listed as Homo sapiens) [Lck-246] | 15,377 FIU | 48 | 299 | 767 | 161(92) | 773 | 1,815 | 366(169) | 49 | 10,806 FIU | 8.3 | 19.3 | 1.0 | 366(11.4) M | 684(11.6) M | 1.0 | 300(9.8) M | 562(10.4) M | 8.7 | 28.2 | HR (cancer patients; [11]): 1.1; Vaccinate cases (mOS) (cancer patients; [12]): 161(15.4) M; Non-vaccinate cases (mOS) (cancer patients; [13]): 273(18.2) M
KYVGIEREM (listed as Homo sapiens) [EZH2-735] | 20,673 FIU | 23 | 837 | 229 | 31(25) | 2,030 | 558 | 69(51) | 23 | 17,691 FIU | 5.3 | 24.7 | 0.9 | 69(13.3) M | 1,481(11.9) M | 0.9 | 53(11.9) M | 1193(10.4) M | 6.7 | 26.7 | positive immune responses post-vaccination (positive of vaccinated cases) ([1]; patients who completed at least the first cycle): 51 of 69; HR (cancer patients; [11]): 0.7; Vaccinate cases (mOS) (cancer patients; [12]): 31(26.5) M; Non-vaccinate cases (mOS) (cancer patients; [13]): 594(18.0) M
LLQAEAPRL (listed as Homo sapiens) [SART3-302] | 17,719 FIU | 84 | 375 | 691 | 173(138) | 948 | 1,640 | 408(271) | 84 | 14,958 FIU | 9.1 | 18.2 | 0.9 | 408(12.7) M | 642(10.5) M | 0.9 | 328(11.4) M | 534(9.8) M | 10.8 | 21.2 | HR (cancer patients; [11]): 0.9; Vaccinate cases (mOS) (cancer patients; [12]): 173(18.1) M; Non-vaccinate cases (mOS) (cancer patients; [13]): 261(16.3) M
LYAWEPSFL (listed as Homo sapiens) [MRP3-503] | 13,871 FIU | 40 | 885 | 181 | 61(46) | 2,121 | 467 | 133(85) | 37 | 6,401 FIU | 9.3 | 20.6 | 0.9 | 133(14.1) M | 1,417(11.9) M | 0.9 | 108(13.4) M | 1138(10.4) M | 12.6 | 25.1 | HR (cancer patients; [11]): 1.0; Vaccinate cases (mOS) (cancer patients; [12]): 61(24.3) M; Non-vaccinate cases (mOS) (cancer patients; [13]): 564(18.1) M

— patent US20220233661A1, “METHOD OF DETERMINING ELIGIBILITY OF CANCER PATIENT FOR PEPTIDE VACCINE THERAPY” (priority 2019, published 2022)
